Structure (SMILES) | melting point
CC(=O)Nc1nc2c(Oc3cc(-c4ccc(C(F)(F)F)nc4N(C)CC4CCCCN4CC(C)C)ncn3)cccc2s1 (centres undefined) | 123 to 125 °C
O=C(Nc1cccc2c(-c3ccccc3)c([N+](=O)[O-])oc12)C(F)(F)F | 194 to 196 °C
Cc1c(-c2ccccc2)c(N2CC[C@H](N(C)C)C2)c2oc(N3CC(C)(O)C3)nc2c1C#N | 167 to 169 °C
CN(C)Cc1ccc(-c2nc(C(=O)Nc3nccs3)c(-c3ccc(Cl)cc3)[nH]2)cc1 | 143 to 145 °C
COc1ccc2c(c1)c(Cc1nc3c(F)c(F)cc(F)c3s1)cn2CC(=O)O | 165 to 167 °C
C=C(C=O)c1ccc(C)cc1[N+](=O)[O-] | 58.5 to 60 °C
Cc1cc(-c2[nH]nc3c2C(=O)c2c(NC(=O)NN4CCN(C)CC4)cccc2-3)c(C)s1 | 250 °C
CCc1ccc2c(c1)C(Cl)Cc1ccc(F)cc1S2 (centres undefined) | 68 to 70 °C
CC1(C)Oc2ccc(-n3c(=O)[nH]c4cccnc43)cc2O1 | 223 to 224 °C
CCCCCCCCOC(=O)CS(=O)(=O)Nc1c(C(C)C)cccc1C(C)C | 56 to 58 °C
C[C@]1(CN2CCN(C(=O)COc3ccc(Cl)cc3)CC2)Cn2cc([N+](=O)[O-])nc2O1 | 179 to 180 °C
CCOC(=O)c1cn(C)c2sc(CCl)cc2c1=O | 111 to 112 °C
CCOC(=O)Cc1csc(NC(=O)C(N)Cc2ccc(F)cc2)n1 (centres undefined) | 124 to 127 °C
COc1ccccc1C(=O)Nc1nc(-c2ccccc2)c(-c2ccc(=O)n(C(C)C)n2)s1 | > 250 °C
NC(=O)c1c(N)nn(-c2ccccc2)c1N | 182 to 183 °C
O=C1CSCN1CC#CCN1CCC(n2c(=O)[nH]c3ccccc32)CC1 | 202 to 204 °C
CCN1C(=O)CCc2cc(Sc3cccc([C@@]4(O)CCO[C@@H](C)C4)c3)ccc21 | 148 to 149 °C
O=C(Nc1cc(C(F)(F)F)cc(C(F)(F)F)c1)C1C(=O)C2CCC(CC2)C1=O (centres undefined) | 286 to 288 °C
CCOC(Cc1ccc(OCc2nc(C3CC3)oc2C)c2ccccc12)C(=O)O (centres undefined) | 166 to 168 °C
C=Cc1cnc(-c2ccccn2)nc1 | 103 °C

Structure (SMILES) | melting point
Cc1nc2ccccc2n1CCCNCC(O)COc1ccc(CC(N)=O)cc1 (centres undefined) | 146 to 149 °C
O=c1[nH]c(=O)n(CCCCl)c2ccccc12 | 183 to 184 °C
COC(C)=NS(=O)(=O)c1nc(-c2ccc(O)cc2)ns1 | 190 to 192 °C
Cc1cccn2c3c(nc12)-c1ccccc1C(=O)C3=O | > 260 °C
O=C(OCc1ccccc1)c1cc2c3ccccc3n(Cc3ccccc3)c2cn1 | 169 to 170 °C
COc1cc(OC)nc(C(=O)c2cccnc2C(=O)O)n1 | 71 to 73 °C
CCCCc1nc(NC(=O)Nc2ccccc2)[nH]c(=O)c1Cc1ccc(-c2ccccc2C(=O)OC)cc1 | 217 to 219 °C
O=C(O)CN1CC(NC(=O)Cc2ccccc2)C1=O (centres undefined) | 144 to 145 °C
O=C(NCCOc1ccc(CC(Sc2nc3ccccc3o2)C(=O)O)cc1)c1ccc(-c2ccccn2)cc1 (centres undefined) | 66 to 67 °C
Cc1cccc(-c2n[nH]cc2-c2ccc(F)c(-c3ccc(S(=O)(=O)C(F)F)cc3)c2)n1 | 80 to 82 °C
Cc1ccccc1C1NS(=O)(=O)c2ccccc21 (single isomer, unassigned; (+)) | 109 to 111 °C
CC(=O)c1ccc(OC2SCC(O)C(O)C2O)cc1 (centres undefined) | 195 to 198 °C
COc1cc(C(O)Cc2c(C)cncc2C)nnc1OC (centres undefined) | 217 to 218 °C
CNc1cc(Oc2ccc(Cl)cc2Cn2ccnc2)ccc1[N+](=O)[O-] | 130 °C
Cc1ccc(C(=O)Nc2c(NC(=O)CCl)ccc3c2C(=O)c2ccccc2C3=O)cc1 | 198 to 199 °C
COc1ccc(-c2nc(Cl)n(C)c2-c2ccc(OC)cc2)cc1 | 132 to 133 °C
C=CCC(O)(CCCc1ccc(Cl)cc1)c1ccc(OCc2ccc3ccccc3n2)cc1 (centres undefined) | 87 to 88 °C
Cn1ncc2c(=S)n3c(nc21)SCC3 | 199 to 200 °C
O=c1[nH]cncc1Cc1cccnc1 | 145 to 148 °C
